Key:
[1] = test system: MDA-MB-435; assay: Cytotoxicity against human MDA-MB-435 cell line by MTT assay; assay type: functional, cell-based
[2] = test system: MCF7; assay: Cytotoxicity against human MCF7 cell line by MTT assay; assay type: functional, cell-based
[3] = test system: HEY; assay: Cytotoxicity against human HEY cell line by MTT assay; assay type: functional, cell-based
[4] = test system: NCI-H1975; assay: Cytotoxicity against human NCI-H1975 cell line by MTT assay; assay type: functional, cell-based
[5] = test system: NIH3T3; assay: Cytotoxicity against mouse NIH3T3 cell line by MTT assay; assay type: functional, cell-based
[6] = test system: HEY; assay: Cytotoxicity against human HEY cell line at 20 uM by MTT assay; assay type: functional
[7] = molecular target: Integrin alpha-V/beta-3 (Homo sapiens, UniProt P05106+P06756); assay: Inhibition of [125I]echistatin binding to integrin alphaVbeta3 receptor; assay type: protein-complex assay
Integrin alpha-V/beta-3, sequence (P05106 27-788 limits assumed): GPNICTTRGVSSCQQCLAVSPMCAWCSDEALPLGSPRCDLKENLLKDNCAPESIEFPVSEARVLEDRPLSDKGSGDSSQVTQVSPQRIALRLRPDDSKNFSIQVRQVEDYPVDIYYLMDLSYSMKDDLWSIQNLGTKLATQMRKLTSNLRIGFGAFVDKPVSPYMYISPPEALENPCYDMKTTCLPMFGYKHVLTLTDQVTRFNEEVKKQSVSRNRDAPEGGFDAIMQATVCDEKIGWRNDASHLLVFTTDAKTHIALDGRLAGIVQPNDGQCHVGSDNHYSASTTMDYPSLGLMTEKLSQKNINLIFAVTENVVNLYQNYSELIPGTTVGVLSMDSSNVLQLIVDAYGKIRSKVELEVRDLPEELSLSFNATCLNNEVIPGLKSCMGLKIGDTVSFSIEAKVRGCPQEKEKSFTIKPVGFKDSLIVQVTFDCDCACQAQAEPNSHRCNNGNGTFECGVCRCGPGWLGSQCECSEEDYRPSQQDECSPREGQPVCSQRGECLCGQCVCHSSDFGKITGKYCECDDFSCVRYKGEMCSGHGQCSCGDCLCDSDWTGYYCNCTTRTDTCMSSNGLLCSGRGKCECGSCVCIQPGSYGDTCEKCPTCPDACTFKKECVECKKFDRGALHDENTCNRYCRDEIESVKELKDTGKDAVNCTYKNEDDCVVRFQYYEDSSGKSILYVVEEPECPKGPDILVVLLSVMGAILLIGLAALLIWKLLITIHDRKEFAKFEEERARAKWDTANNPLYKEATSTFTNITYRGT
Integrin alpha-V/beta-3, sequence (P06756 31-889 limits assumed): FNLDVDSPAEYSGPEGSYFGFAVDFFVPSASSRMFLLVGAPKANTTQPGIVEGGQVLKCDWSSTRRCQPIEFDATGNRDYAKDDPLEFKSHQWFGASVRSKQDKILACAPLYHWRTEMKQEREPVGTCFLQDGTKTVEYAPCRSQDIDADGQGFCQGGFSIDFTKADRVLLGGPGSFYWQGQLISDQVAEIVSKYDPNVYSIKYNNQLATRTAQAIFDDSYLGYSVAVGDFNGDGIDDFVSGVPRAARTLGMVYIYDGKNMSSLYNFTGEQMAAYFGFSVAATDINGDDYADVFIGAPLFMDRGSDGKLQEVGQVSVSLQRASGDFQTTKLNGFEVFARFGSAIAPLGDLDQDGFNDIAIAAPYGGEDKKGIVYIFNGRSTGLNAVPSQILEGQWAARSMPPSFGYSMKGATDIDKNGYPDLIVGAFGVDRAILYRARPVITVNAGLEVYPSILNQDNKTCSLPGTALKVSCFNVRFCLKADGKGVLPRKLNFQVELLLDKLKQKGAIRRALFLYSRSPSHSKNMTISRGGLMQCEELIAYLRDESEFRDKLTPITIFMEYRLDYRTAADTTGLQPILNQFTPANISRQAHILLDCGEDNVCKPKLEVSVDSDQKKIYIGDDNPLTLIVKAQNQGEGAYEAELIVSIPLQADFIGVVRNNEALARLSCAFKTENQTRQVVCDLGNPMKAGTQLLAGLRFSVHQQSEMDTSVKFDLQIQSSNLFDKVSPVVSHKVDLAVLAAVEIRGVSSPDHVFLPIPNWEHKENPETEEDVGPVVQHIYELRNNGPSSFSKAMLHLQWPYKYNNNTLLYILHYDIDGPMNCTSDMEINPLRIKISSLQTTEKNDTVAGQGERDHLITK
Integrin alpha-V/beta-3, sequence (P06756 891-1048 limits assumed): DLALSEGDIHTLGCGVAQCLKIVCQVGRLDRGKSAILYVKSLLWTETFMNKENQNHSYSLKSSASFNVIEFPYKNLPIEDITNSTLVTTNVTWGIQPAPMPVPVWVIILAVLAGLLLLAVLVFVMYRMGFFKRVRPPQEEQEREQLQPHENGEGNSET

[8] = test system: MCF7; assay: Cytotoxicity against human MCF7 cell line at 20 uM by MTT assay; assay type: functional
[9] = test system: MDA-MB-435; assay: Cytotoxicity against human MDA-MB-435 cell line at 20 uM by MTT assay; assay type: functional

SMILES | IC50 [1] [µM] | IC50 [2] [µM] | IC50 [3] [µM] | inhibition at 20 µM [6] [%] | further results
Nc1nc(O)c2nc(CCCNc3ccc(C(=O)NC(CCC(=O)O)C(=O)O)cc3)cnc2n1 (configuration not stated) | > 20 | > 20 | > 20 | 0 | IC50 [4]: > 20 µM; IC50 [5]: > 20 µM
O=C(CCCCn1cnc2c(S)ncnc21)Nc1ccc(C(=O)O)c(O)c1 | – | – | – | 0 | –
O=C(O)c1ccc(-c2ccc(/C=N/Nc3nc(Nc4ccccc4)nc(Nc4ccccc4)n3)o2)cc1 | 18 | > 20 | 21 | – | –
CCOc1cc(/C=N/Nc2nc(Nc3ccccc3)nc(N3CCCCC3)n2)ccc1OCC(=O)O | – | – | – | 0 | –
O=C(O)c1cccc(-c2ccc(/C=N/Nc3nc4nonc4nc3Nc3ccc(F)cc3)o2)c1 | 8 | 19 | 7 | 90 | IC50 [7]: > 1 µM; IC50 [4]: > 20 µM; IC50 [5]: 13 µM
Nc1nc(O)c2nc3c(nc2n1)C(=O)N(c1ccc(C(=O)NC(CCC(=O)O)C(=O)O)cc1)C3 (configuration not stated) | – | – | – | 0 | –
COc1cc(OC)c(/C=C2\S/C(=N/c3ccc(C(=O)O)cc3)N(C)C2=O)cc1Br | – | – | – | 4 | –
Nc1nc(=O)c2cc(CSc3ccc(C(=O)NC(CCC(=O)O)C(=O)O)cc3)ccc2[nH]1 (configuration not stated) | – | – | – | 0 | –
Cc1ccc(NC(=O)CN2C(=O)N/C(=C\c3cccn3-c3cccc(C(=O)O)c3)C2=O)cc1 | > 20 | > 20 | > 20 | 5 | IC50 [4]: > 20 µM; IC50 [5]: > 20 µM
Cc1ccnc(NS(=O)(=O)c2ccc(NC(=O)c3ccc(C(=O)O)cc3C(=O)O)cc2)n1 | – | – | – | 0 | –
CCOc1ccc(/N=C2/S/C(=C\c3ccc(N(C)C)cc3)C(=O)N2CC)cc1 | > 20 | > 20 | > 20 | – | IC50 [4]: > 20 µM; IC50 [5]: > 20 µM
CCOc1cc(/C=C2/S/C(=N\c3ccc(C(=O)O)cc3)N(C)C2=O)ccc1O | 0.34 | > 20 | 13 | 51 | inhibition at 20 µM [8]: 37%; IC50 [7]: 0.24 µM; IC50 [4]: > 20 µM; inhibition at 20 µM [9]: 94%; IC50 [5]: > 20 µM
COc1cc(/C=N/Nc2nc(Nc3ccc(F)cc3)nc(N3CCCCC3)n2)ccc1OCC(=O)O | – | – | – | 0 | –
CN(Cc1cnc2nc(N)nc(N)c2n1)c1ccc(C(=O)NC(CCCCN)C(=O)O)cc1 (configuration not stated) | – | – | – | 0 | –
CN(C)c1ccc(/C=C2\SC(=Nc3ccc(O)cc3)NC2=O)cc1 | 2.8 | > 20 | > 20 | – | IC50 [7]: > 1 µM
CC(=O)Nc1nc(O)c2nc(CCN(C)c3ccc(C(=O)O)cc3)cnc2n1 | – | – | – | 0 | –
CS(=O)(=O)Nc1ccc(C2=NN(C(=O)CCCC(=O)O)C(c3ccco3)C2)cc1 (configuration not stated) | > 20 | > 20 | > 20 | – | IC50 [4]: > 20 µM; IC50 [5]: > 20 µM
CC1=NN(c2ccc(S(N)(=O)=O)cc2)C(=O)/C1=C\c1ccc(-c2ccccc2C(=O)O)o1 | – | – | – | 5 | inhibition at 20 µM [8]: 20%; inhibition at 20 µM [9]: 24%
COc1cc(/C=C2/NC(=O)N(CC(=O)Nc3ccc(C)cc3)C2=O)ccc1OCc1cccc(C(=O)O)c1 | – | – | – | 0 | inhibition at 20 µM [8]: 43%; inhibition at 20 µM [9]: 26%
Nc1ccc(C(=O)Nc2nc3ccc(C(=O)O)cc3s2)cc1 | – | – | – | 0 | –
Cc1nnc(N/N=C/c2ccc(OCC(=O)O)cc2)nc1O | – | – | – | 0 | –
COc1cc(Cl)c(/C=C2\S/C(=N/c3cccc(C(=O)O)c3)N(C)C2=O)cc1OC | > 20 | > 20 | > 20 | 0 | IC50 [4]: > 20 µM; IC50 [5]: > 20 µM
COc1cc(O)c(Cl)cc1/C=C1\S/C(=N/c2cccc(C(=O)O)c2)N(C)C1=O | – | – | – | 0 | inhibition at 20 µM [8]: 9%; inhibition at 20 µM [9]: 3%
CC1=C(C#N)c2nc(N)c(C#N)c(C)c2/C1=C/c1ccc(-c2ccc(Cl)c(C(=O)O)c2)o1 | – | – | – | 14 | –
CCn1cc(C(=O)O)c(=O)c2cc(F)c(N3CCN(S(=O)(=O)c4ccc(NC(C)=O)cc4)CC3)cc21 | – | – | – | 0 | –
Nc1nc(O)c2cc(COc3ccc(C(=O)NC(CCC(=O)O)C(=O)O)cc3)ccc2n1 (configuration not stated) | – | – | – | 6 | –
CC1=NN(c2ccc(C(=O)O)cc2)C(=O)/C1=C/c1ccc(-c2ccc(S(N)(=O)=O)cc2)o1 | > 20 | 19 | > 20 | 6 | –
O=C(O)COc1ccc(/C=N/NC(=O)c2ccc(O)cc2)cc1OCC(=O)O | – | – | – | 9 | –
O=C(CSc1nnn(-c2ccc(O)cc2)n1)NCc1cccc(C(=O)O)c1 | – | – | – | 0 | inhibition at 20 µM [8]: 34%; inhibition at 20 µM [9]: 9%

Reference: ChEMBL document CHEMBL1137431, “Discovery of small molecule integrin alphavbeta3 antagonists as novel anticancer agents” (J Med Chem, 2006)
